The values below come from US20240287138A1, “CYCLIC PEPTIDES FOR INHIBITING TNF RECEPTOR 1 ACTIVITY” (Merck Sharp & Dohme LLC, priority 2023, published 2024).

SMILES strings stand for the structures. Numbered stars: 1 amine (or outer) side, 2 acyl side, 3 side chain; on linkers, the order of the positions; unused ones are H or OH. Bridge positions count the residues as written; N and C are the ends. Square brackets hold non-standard residues; d marks the D form. Peptide text beside a SMILES is read from it. * marks the point of attachment. Trp(βS-Me,7-OMe) = COc1cccc2c([C@H](C)[C@H](N)C(=O)O)c[nH]c12; Trp(7-CN) = N#Cc1cccc2c(C[C@H](N)C(=O)O)c[nH]c12; Trp(7-Cl) = N[C@@H](Cc1c[nH]c2c(Cl)cccc12)C(=O)O; Phe(4-CONH2) = NC(=O)c1ccc(C[C@H](N)C(=O)O)cc1; Phe(4-COOH) = N[C@@H](Cc1ccc(C(=O)O)cc1)C(=O)O; Trp(7-aza) = N[C@@H](Cc1c[nH]c2ncccc12)C(=O)O; X3 = C[C@H](c1ccncc1)[C@H](N[*:1])C(=O)[*:2]; dPro(trans-4-F) = O=C(O)[C@H]1C[C@H](F)CN1; Pip(5R-OH) = O=C(O)[C@@H]1CC[C@@H](O)CN1; X1 = O=C([C@@H]1CC[C@H](N[*:1])C1)[*:2]; Pip(4-aza) = O=C(O)[C@@H]1CNCCN1; 4Pal = N[C@@H](Cc1ccncc1)C(=O)O; NMeE = CN[C@@H](CCC(=O)O)C(=O)O; dHyp = O=C(O)[C@H]1C[C@H](O)CN1; Ahp(2) = CCCCC[C@H](N)C(=O)O; αMeS = C[C@](N)(CO)C(=O)O; Carboxymethyl = O=C(O)C*; Nle = CCCC[C@H](N)C(=O)O; Sar = CNCC(=O)O

The target of assay [1] is T1, human TNFR2 ECD protein (Homo sapiens, UniProt P20333).
T1 construct: HRV 3C protease cleavage site (C); 6His (C, cleaved yes); made in house; host or cells: Sf21 insect cells (baculovirus), secreted
T1 sequence (P20333 23-257): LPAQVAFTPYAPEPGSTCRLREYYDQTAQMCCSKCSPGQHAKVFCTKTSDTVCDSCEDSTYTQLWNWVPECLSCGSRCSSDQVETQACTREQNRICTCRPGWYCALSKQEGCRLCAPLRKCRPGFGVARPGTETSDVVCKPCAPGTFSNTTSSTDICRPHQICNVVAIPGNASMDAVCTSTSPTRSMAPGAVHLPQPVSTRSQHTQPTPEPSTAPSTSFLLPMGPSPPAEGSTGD
Put plainly: SPR off-target binding (selectivity) to human TNFR2 ECD. Put shortly:
(§1)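 Biotinylated avi-tagged human TNFR1 or TNFR2 ECD, expressed in Sf21 insect cells, captured on streptavidin SPR chip; peptide analytes run in 10 mM HEPES pH 7.4, 150 mM NaCl, 3 mM EDTA, 0.05% P20, 2% DMSO. kon and koff measured, affinity KA calculated.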

The target of assay [2] is T2, human soluble TNFR1 (sTNFR1) (Homo sapiens, UniProt P19438).
T2 construct: made in house; host or cells: Sf21 (baculovirus)
T2 sequence (P19438 with tags, fused parts or gaps): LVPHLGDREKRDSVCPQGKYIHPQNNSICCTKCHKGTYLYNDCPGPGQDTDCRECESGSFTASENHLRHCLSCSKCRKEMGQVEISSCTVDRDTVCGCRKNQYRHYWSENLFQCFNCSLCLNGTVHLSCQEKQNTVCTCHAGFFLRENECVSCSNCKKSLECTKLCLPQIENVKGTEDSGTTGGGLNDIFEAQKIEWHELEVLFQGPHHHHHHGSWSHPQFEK
Put plainly: Human sTNFR1-peptide displacement assay (LanthaScreen Eu TR-FRET binding assay). Put shortly: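 Readout is the 665/615 nm TR-FRET ratio (Eu anti-His donor, streptavidin-Alexa647 acceptor), normalized to DMSO and saturating displacer, fit by Morrison-based five-parameter logistic for Kd^app. His-tagged sTNFR1 (1-211) prebound to 100 nM biotinylated peptide SEQ ID NO.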
Background: TR-FRET usually uses a lanthanide donor and a delayed reading to cut background.

For assay [3], the target named is T3, human TNFR1 extracellular domain (ECD) protein (Homo sapiens, UniProt P19438).
T3 construct: HRV 3C protease cleavage site (C); 6His (C, cleaved yes); made in house; host or cells: Sf21 insect cells (baculovirus), secreted
T3 sequence (P19438 30-211): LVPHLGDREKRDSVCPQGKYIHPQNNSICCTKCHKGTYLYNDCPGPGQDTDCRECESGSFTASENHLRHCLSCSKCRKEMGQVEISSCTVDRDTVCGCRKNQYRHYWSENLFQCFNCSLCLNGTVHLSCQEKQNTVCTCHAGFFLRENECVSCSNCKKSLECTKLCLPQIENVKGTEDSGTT
Put plainly: SPR binding affinity to captured human TNFR1 ECD. The essentials:
as §1

As a reminder, the Kd is a measure of binding affinity in units of concentration. Read a low Kd as tighter binding. Regarding `CCCC[C@@H]1NC(=O)[C@@H]2CC[C@@H](C2)NC(=O)[C@H]([C@@H](C)c2c[nH]c3c(OC)cccc23)NC(=O)CN(C)C(=O)[C@H](Cc2ccc(C(=O)O)cc2)NC(=O)[C@H](Cc2ccc(C(N)=O)cc2)NC(=O)[C@](C)(CO)NC(=O)[C@H](Cc2c[nH]c3c(Cl)cccc23)NC(=O)[C@H](Cc2ccncc2)NC(=O)[C@H](CC(N)=O)NC(=O)[C@H]2C[C@H](F)CN2C(=O)[C@H](Cc2c[nH]c3ccccc23)NC(=O)[C@@H]2CC[C@@H](O)CN2C(=O)[C@H](Cc2ccncc2)NC1=O` [SEQ ID NO. 101] (cyclo([4Pal][Trp(7-Cl)][αMeS][Phe(4-CONH2)][Phe(4-COOH)][Sar][Trp(βS-Me,7-OMe)][X1][Nle][4Pal][Pip(5R-OH)]W[dPro(trans-4-F)]N)), the equilibrium dissociation constant (Kd) in assay [1] was greater than 1000 nM; in assay [2], 0.05 nM; in assay [3], 0.05 nM.

In general, IC50 refers to the concentration at which inhibition is half-maximal. Lower therefore signals greater potency in that assay. As for `CN1CC(=O)N[C@@H](Cc2c[nH]c3ccccc23)C(=O)N[C@H](C(N)=O)CSCC(=O)N[C@@H](CCCCN)C(=O)N[C@@H](Cc2ccc(O)cc2)C(=O)N[C@@H](CO)C(=O)N[C@@H](Cc2c[nH]c3ccccc23)C(=O)N2CCC[C@@H]2C(=O)N[C@@H](CCC(N)=O)C(=O)N[C@@H](Cc2ccncc2)C(=O)N[C@@H](Cc2c[nH]c3ccccc23)C(=O)N[C@@](C)(CO)C(=O)N[C@@H](Cc2ccc(C(=O)O)cc2)C(=O)N[C@@H](Cc2ccc(O)cc2)C1=O` [SEQ ID NO. 242] ({CH2CO}-KYSW[dP]Q[4Pal]W[αMeS][Phe(4-COOH)]Y[Sar]WC-NH2; thioether N-14), the Kd was greater than 1000 nM in assay [1] and 0.3 nM in assay [3]. This compound had a concentration for half-maximal inhibition (IC50) in assay [2] of 1.21 nM.

Consider `CCCCC[C@@H]1NC(=O)[C@@H]2CC[C@@H](C2)NC(=O)[C@H]([C@@H](C)c2c[nH]c3c(OC)cccc23)NC(=O)CN(C)C(=O)[C@H](Cc2ccc(C(N)=O)cc2)NC(=O)[C@H](Cc2ccc(C(N)=O)cc2)NC(=O)[C@](C)(CO)NC(=O)[C@H](Cc2c[nH]c3c(C#N)cccc23)NC(=O)[C@H](Cc2ccc(C(=O)O)cc2)NC(=O)[C@H](CC(N)=O)NC(=O)[C@H]2C[C@H](OCC(=O)O)CN2C(=O)[C@H](Cc2c[nH]c3ccccc23)NC(=O)[C@@H]2CNCCN2C(=O)[C@H](Cc2ccncc2)NC1=O` [SEQ ID NO. 140] (cyclo([4Pal][Pip(4-aza)]W[dHyp](Carboxymethyl)N[Phe(4-COOH)][Trp(7-CN)][αMeS][Phe(4-CONH2)][Phe(4-CONH2)][Sar][Trp(βS-Me,7-OMe)][X1][Ahp(2)])), for which the Kd in assay [1] was greater than 1000 nM; in assay [2] it was 0.06 nM; in assay [3] it was 0.05 nM.

On to `CCCC[C@@H]1NC(=O)CSC[C@@H](C(N)=O)NC(=O)[C@H]([C@@H](C)c2c[nH]c3c(OC)cccc23)NC(=O)CN(C)C(=O)[C@H](Cc2ccc(O)cc2)NC(=O)[C@H](Cc2ccc(C(=O)O)cc2)NC(=O)[C@](C)(CO)NC(=O)[C@H](Cc2c[nH]c3c(Cl)cccc23)NC(=O)[C@H](Cc2ccc(OC)cc2)NC(=O)[C@H](CC(N)=O)NC(=O)[C@H](CCC(=O)O)N(C)C(=O)[C@H](Cc2c[nH]c3ccccc23)NC(=O)[C@@H]2CNCCN2C(=O)[C@H](Cc2ccncc2)NC1=O` [SEQ ID NO. 218] ({CH2CO}-[Nle][4Pal][Pip(4-aza)]W[NMeE]NY(Me)[Trp(7-Cl)][αMeS][Phe(4-COOH)]Y[Sar][Trp(βS-Me,7-OMe)]C-NH2; thioether N-14), for which the dissociation constant (Kd) in assay [1] was greater than 1000 nM; in assay [3], 0.5 nM. In assay [2], the IC50 stood at 1.15 nM.

Take `CCCC[C@@H]1NC(=O)CSC[C@@H](C(N)=O)NC(=O)[C@H]([C@@H](C)c2c[nH]c3c(OC)cccc23)NC(=O)CN(C)C(=O)[C@H](Cc2ccc(O)cc2)NC(=O)[C@H](Cc2ccc(C(=O)O)cc2)NC(=O)[C@](C)(CO)NC(=O)[C@H](Cc2c[nH]c3c(Cl)cccc23)NC(=O)[C@H](Cc2ccncc2)NC(=O)[C@H](CC(N)=O)NC(=O)[C@H](CCC(=O)O)N(C)C(=O)[C@H](Cc2c[nH]c3ncccc23)NC(=O)[C@H](CO)NC(=O)[C@H]([C@H](C)c2ccncc2)NC1=O` [SEQ ID NO. 143] ({CH2CO}-[Nle][X3]S[Trp(7-aza)][NMeE]N[4Pal][Trp(7-Cl)][αMeS][Phe(4-COOH)]Y[Sar][Trp(βS-Me,7-OMe)]C-NH2; thioether N-14): the values for the dissociation constant (Kd) in assay [1], in assay [2] and in assay [3] were greater than 1000 nM, 0.21 nM and 0.05 nM, respectively. In assay [2], the half-inhibitory concentration (IC50) was determined as 0.4 nM.
